Patent US20220305003A1, “METHODS OF TREATING CANCER WITH AN INHIBITOR OF ZNF827” (CHILDREN'S MEDICAL RESEARCH INSTITUTE, priority 2019, published 2022)

Legend:
[1] = tested on: HT1080 and HT1080 6TG cells; assay: γH2AX and ZNF827 foci by immunofluorescence; conditions: topotecan 2 μg/mL 24 hr vs unchallenged
[2] = tested on: U-2 OS cells; assay: Sister chromatid exchange (SCE) assay in U-2 OS; format: cell-based; conditions: topotecan 2 μg/mL 1 hr
Experimental: For the SCE assay, 20-25% confluent cells were cultured in fresh media supplemented with 7.5 μM […] (BrdU) and 2.5 μM BrdC (BrdU:BrdC 3:1 ratio; Sigma-Aldrich) for 32-48 hours depending on the mitotic index of the cell line. Cell cultures were treated with 100 ng/mL colcemid for the last 4 hours of incubation to accumulate mitotic cells. Cells were harvested by trypsinisation and centrifugation, and then incubated in hypotonic buffer for 10 minutes at 37° C. Swollen cells were fixed by gradually adding 1 mL of fresh ice-cold fixative (methanol/acetic acid 3:1), mixing by inversion and incubating on ice for 5 minutes. Cells were then collected by centrifugation at 1200 rpm for 8 minutes. 10 mL ice cold fixative was added to resuspend the cells followed by 5 minutes incubation on ice and centrifugation at 1200 rpm for 8 minutes. This fixing step was repeated another two times. Fixed cells were then resuspended in 500-1000 μL of ice-cold fixative, and dropped onto clean, dry microscope slides (HDS Surefrost, 50-100 μL cell solution per slide). To drop chromosomes, a clean dry slide was held over a 75° C. water bath, and the cell solution was dropped from a pipette onto the slide, which was quickly flipped and held close to the surface of the water bath for 5 seconds. […]

[3] = tested on: U-2 OS cells; assay: Topotecan dose-response of cell proliferation after siRNA transfection (IncuCyte); format: cell-based; conditions: topotecan 0.0039-1 μg/mL, 180 hours, compared to scrambled control
Experimental: U-2 OS cells were plated in a 96-well plate at 4000 cells per well. 24 hours following plating, cells were transfected with either scrambled or ZNF827 siRNAs (Table 2) using Lipofectamine RNAiMAX transfection reagent (ThermoFisher Scientific). 24 hours post siRNA transfection, cells were treated with topotecan at a range of concentrations including 0.0039, 0.0078, 0.0156, 0.03125, 0.0625, 0.125, 0.25, 0.5 and 1 μg/mL in triplicates. DMSO was used as untreated control. Immediately after treatment addition, cells were imaged using the IncuCyte® live cell imaging system at 2-hour intervals for 180 hours. Cell proliferation was measured by phase object confluence calculated by the IncuCyte® analysis software. For IC50s, cell proliferation data were analysed in GraphPad Prism 8 to obtain area under curve (AUC), followed by normalisation and non-linear regression using the log(inhibitor) vs. normalised response -variable slope' function.

[4] = tested on: ATR-CHK1 pathway; assay: Western blot of pCHK1, pRPA32 and p21 after ZNF827 knockdown, topotecan and/or ATR inhibitor; format: cell-based
Experimental: Protein was extracted from 10^6 cells per sample by vigorous pipetting and incubation at room temperature for 30 minutes in 100 μL of EDTA-free 4× LDS buffer (106 mM Tris-Cl, 141 mM Tris-Base, 40% Glycerol, 2% LDS, 0.075% SERVA Blue G50) supplemented with 2.5% Benzonase® nuclease 25 U/μL (Novagen, Merck Millipore) and 2% beta-mercaptoethanol (Sigma). Following protein extraction, all samples were denatured at 90° C. for 15 minutes before resolving on NuPAGE® Novex® 4-12% Bis-Tris Mini Gels (Invitrogen) with 1×10^5 cells (10 μL) loaded per lane in NuPAGE® MES SDS running buffer (Invitrogen) at 200 V for 50 minutes. Gels were transferred onto a PVDF membrane (Immobilon-P, Millipore) in transfer buffer (190 mM glycine, 25 mM Tris and 10% methanol) at 100 V for 60 minutes. Membranes were stained with Ponceau-S for 30 minutes, de-stained then blocked for 1 hour at room temperature in 5% skim milk dissolved in PBS with 0.1% Tween-20 (PBST) or TBS with 0.1% Tween-20 (TBST) for phosphorylated proteins. Membranes were cut into appropriate segments based on the size markers, with each segment incubated with antibodies for proteins of interest diluted in 0.5% skim milk in PBST/TBST or 5% BSA overnight at 4° C. (Refer to Table 4 for the list of antibodies). Blots were then washed for 3×5 minutes in PBST/TBST followed by incubation for 1 hour at room temperature with appropriate secondary antibodies (See Table 5) diluted 1:5000 in 0.5% skim milk or 5% BSA in PBST/TBST. Blots were washed for 3×5 minutes in PBST/TBST before incubation with SuperSignal West Pico Chemiluminescent Substrate (ThermoFisher Scientific) for 5 minutes at room temperature. Blots were then exposed to a Luminescent Image Analyser (LAS-4000, Fujifilm).

[5] = EdU flow cytometry; format: cell-based; conditions: EdU pulse 1 hour
Experimental: Using EdU flow cytometry (5-ethynyl-2′-deoxyuridine) is a thymidine analogue which is incorporated into DNA during active DNA synthesis), the effects of ZNF827 depletion on cell cycle progression, especially on DNA replication, were examined.
EdU flow cytometry was performed with the Click-iT EdU flow cytometry kit (ThermoFisher Scientific) according to manufacturer's instructions. Briefly cells were pulsed with EdU for 1 hour at 37° C. and harvested by trypsinisation and centrifugation at 1000 rpm for 5 minutes. Cells were then fixed and labelled with Alex Fluor 647 with the flow cytometry kit following the manufacturer's protocol. For DNA content labelling, the fixed cells were treated with 0.5 mg of RNase (Sigma) and 25 μg of propidium iodide at 37° C. for 30 minutes. Labelled cells were analysed using the BD FACSCanto Flow Cytometer (BD Biosciences) containing lasers to excite Alexa Fluor 647 labelled EdU and propidium iodide. Between 10 000-15 000 events were collected at an approximate flow rate of 200 events/second. Data analysis was conducted using FlowJo 7.

Compound	ZNF827 foci induction [1]	γH2AX foci induction [1]	sister chromatid exchanges (SCEs) [2]	sensitivity to topotecan treatment (cell proliferation dose-response) [3]	phosphorylation of CHK1 S345 and RPA32 S33 compared with ATR inhibitors ([4]; ZNF827 knockdown versus ATR inhibitors VE-821 and AZ20)	phosphorylation of CHK1 S345 and RPA S33 ([4]; ZNF827 knockdown, topotecan treatment)	p21 level ([4]; unchallenged ZNF827-depleted cells, compared with topotecan-treated cells)	cell cycle distribution (EdU) [5]
CC[C@@]1(O)C(=O)OCc2c1cc1n(c2=O)Cc2cc3c(CN(C)C)c(O)ccc3nc2-1 [topotecan]	striking induction of ZNF827	efficiently induced γH2AX foci	drastic induction of SCEs	–	–	–	–	–
siZNF827: Stealth RNAi siRNA ZNF827HSS135819 duplex oligoribonucleotides (Invitrogen), SEQ ID NO: 12 and 13 (chain 1 GGGCAGUCUUCUGGCUGAGAAAUCA; chain 2 UGAUUUCUCAGCCAGAAGACUGCCC; listed as RNA, further chemistry not given here)	–	–	–	markedly increased sensitivity to topotecan treatment	greater reduction in phosphorylation of CHK1 S345 and RPA32 S33 than ATR inhibitors	substantially suppressed	upregulated	conspicuous G1 arrest and a significant reduction of S phase cells
